These results are taken from US20040247703A1, “Composition for inhibiting glutamate-mediated neurotoxicity comprising ginsenoside Rg3 or ginsenoside Rh2” (priority 2002, published 2004).

The subject of test [1] is NMDA receptor. As to the kind of experiment: NMDA receptor-mediated Ca2+ influx by Ca2+-imaging technique (fura-2/AM) in cultured hippocampus nerve cells. In kind it is cell-based, mouse. The settings on record: for % inhibition of NMDA receptor-mediated [Ca^2+]i infulx: cultured mouse hippocampus nerve cell; for inhibition effect for NMDA receptor activity, screening of pure 20(S) compounds, in words: 9 kinds of 20(S) compounds, FIG. 5; for NMDA receptor-mediated Ca^2+ influx inhibition, comparison of isomer forms, in words: Table 1 comparison of 20(S)-form with mixture of S-form and R-form. As to the method: (§1) Hippocampus nerve tissues were separated from an 18-day-old fetus to 1-day-old newborn white mouse using a dissection microscope. The tissues were treated with Leibovitz L-15 medium (Gibco, Grand Island, N.Y.) including 0.05% papain at 37° C. for 20 minutes. Then, the solution was washed with Ca^2+ or Mg^2+ free Hank's Balanced Salt Solution (Gibco, Grand Island, N.Y.) several times, and the single hippocampus nerve cell was separated mechanically by adjusting the pore size of the Pasteur pipette. The cell was cultured on a cover slip that was treated with poly-L-lysine in a concentration of 1.5×10^5 cell/ml.
The cell was cultured in a culturing solution of Neurobasla/B27 (Gibco, Grand Island, N.Y.) to which 0.5 mM L-glutamine, 25 μM glutamate, 25 μM 2-mercaptoethanol, 100 U/ml penicillin and 100 μg/ml streptomycin were added. Half of the medium was replaced twice a week with a medium having no added glutamate. Cells that were cultured for 7 to 15 days were used in the experiment.
Fura-2/AM (Molecular probes: Eugene, Oreg.) of the acetoxymethyl-ester form was used as a fluorescent Ca^2+ label. The hippocampus nerve cell was primarily incubated with 5 μM fura-2/AM and 0.001% Pluronic F-127 in HEPES buffer solution (unit mM: 150 NaCl, 5 KCl, 1 MgCl2,2 CaCl2,10 HEPES, 10 glucose, pH 7.4) at room temperature for 40 to 60 minutes and then washed with the HEPES buffer solution several times. After stabilizing the cell for 10 minutes, the change in intracellular Ca ion concentration was determined using an inverted microscope.
Specifically, the cell was exposed selectively to the excitation wavelengths (340 nm and 380 nm) from a xenon arc lamp by a computer-controlled filter wheel (Sutter Instruments, CA). Data was obtained every 2 seconds and a shutter was placed at the light-exposed portion so as to prevent any photo-toxicity on the cell. Emitter fluorescence light, which passed through a 515 nm long-pass filter, reached a cooling CCD camera. The ratios of intensity (340/380 nm) were converted to intracellular free Ca^2+ concentration ([Ca^2+]i) by digital fluorescence analyzer. Analysis of all image data was performed using Universal Imaging software (West Chester, Pa.).
Method for screening NMDA receptor inhibitor via NMDA receptor activity in a hippocampus nerve cell was performed by a Ca^2+-imaging technique using a Ca-dependent dye, fura-2/AM, as explained in Example 2.
Therefore, the system was used in the NMDA receptor inhibitor screening of ginseng components.
As stated above, the experiments of FIGS. 2A to 2C were to determine Ca^2+ influx caused by NMDA activity, when NMDA was administered to the cultured hippocampus nerve cell (5˜10 seconds), by using the Ca^2+-imaging technique. […]

In test [2] the test system is white mouse hippocampus nerve cells. As to the kind of experiment: MTT assay, survival of nerve cells against cytotoxicity by NMDA. The class given is cell-based. The conditions noted are these: pretreated 1 minute, NMDA 10 minutes, MTT after 24 hours; 100 μg/ml GTS, 10 μM Rg3; FIG. 3. As to the method:
3-(4,5-dimethylthiazole-2-yl)-2,5-diphenyltetrazolium bromide (MTT) assay was carried out to determine the survival rate of cells against cytotoxicity by NMDA in nerve cells. Primarily cultured white mouse hippocampus nerve cells were cultured in a 24-well plate, to which a Neurobasal/B27 (Gibco, Grand Island N.Y.) medium including 0.5 mM L-glutamine, 25 μM glutamate, 25 μM 2-mercaptoethanol, 100 U/ml penicillin and 100 μg/ml streptomycin was added for 6-14 days. The cells were pretreated with 100 μg/ml GTS and 10 μM Rg3 using a Mg^2+ free HEPES buffered solution including 1 μM glycine for 1 minute and then treated with NMDA for 10 minutes. Thereafter, the medium was exchanged with the normal culture medium. Twenty-four hours after such treatment, the cells were treated directly with a 50 μl MTT solution in phosphate buffered saline (PBS) (1 mg/ml). Four hours after MTT treatment, the supernatant was removed, and the produced formazan was resolved in 100 μl dimethylsulfoxide (DMSO). Optical density at 560 nm was read using an automated spectrophotometric plate reader.

The next test concerns hippocampus nerve cells. The settings on record: literature (Lim, J. H. et al. 1997); cited from earlier work.
In another test the test system is cultured cortical neuron. The settings on record: literature (Kim, Y. C. et al. 1998); cited from earlier work.
In test [3] the test system is NMDA receptor. Put plainly: NMDA receptor-mediated membrane current by whole-cell patch-clamp in hippocampus nerve cells. The class given is cell-based, mouse. The settings on record: 10 μM; FIG. 2D. As to the method: as §1
The cell was cultured in a culturing solution of Neurobasla/B27 (Gibco, Grand Island, N.Y.) to which 0.5 mM L-glutamine, 25 μM glutamate, 25 μM 2-mercaptoethanol, 100 U/ml penicillin and 100 μg/ml streptomycin were added. Half of the medium was replaced twice a week with a medium having no added glutamate. […]
Whole-cell voltage-clamp recordation was carried out using a perforated patch-clamp method. […] After 10 minutes, the membrane current was determined. […]
As a solution that allows only the monovalent ion to pass the membrane to produce an electric current, Nystatin stock solution of 25 mg/ml was diluted into a concentration of 250 μg/ml and added to the internal solution. […] The membrane voltage was recorded using an EPC-9 amplifier and Pulse/Pulsefit software (HEKA, Germany). […]
In general terms: In patch-clamp work, channel activity is measured electrically.

As for `CC(C)=CCC[C@](C)(O)[C@H]1CC[C@]2(C)[C@@H]1[C@H](O)C[C@@H]1[C@@]3(C)CC[C@H](O[C@@H]4O[C@H](CO)[C@@H](O)[C@H](O)[C@H]4O[C@@H]4O[C@H](CO)[C@@H](O)[C@H](O)[C@H]4O)C(C)(C)[C@@H]3CC[C@]12C` [20(S)-ginsenoside Rg3], the “% inhibition of NMDA receptor-mediated [Ca^2+]i infulx” value (from here on “% inhibition”) in the test with NMDA receptor [1] (1 μM) was 30.4 ± 2.3%. Besides, in the test on NMDA receptor [1], the “inhibition effect for NMDA receptor activity, screening of pure 20(S) compounds, in words” value was “most excellent inhibition effect”.

On to `CC(C)=CCC[C@](C)(O)[C@H]1CC[C@]2(C)[C@@H]1[C@H](O)C[C@@H]1[C@@]3(C)CC[C@H](O[C@@H]4O[C@H](CO)[C@@H](O)[C@H](O)[C@H]4O)C(C)(C)[C@@H]3CC[C@]12C` [20(S)-ginsenoside Rh2], for which the “% inhibition” value in the test with NMDA receptor [1] (1 μM) worked out at 47.1 ± 4.3%. Also, in the test with NMDA receptor [1], the “inhibition effect for NMDA receptor activity, screening of pure 20(S) compounds, in words” value is given as “most excellent inhibition effect”; the “NMDA receptor-mediated Ca^2+ influx inhibition, comparison of isomer forms, in words” value is “superior effect to the mixture of S-form and R-form isomers”.

Take `N[C@H](CCCP(=O)(O)O)C(=O)O` [D-APV, D(−)-2-amino-5-phosphono-pentanoic acid, reference compound]: in the test with NMDA receptor [1] (FIG. 1, repeated NMDA applications), the “Ca^2+ concentration ([Ca^2+]i) after NMDA application, in words” value is recorded as “significantly decreased”. In addition, the “cell viability against neurotoxicity caused by NMDA, in words” value in test [2] is given as “effectively increase cell viability”.

As to `CC(C)=CCC[C@](C)(O[C@@H]1O[C@H](CO[C@@H]2O[C@H](CO)[C@@H](O)[C@H](O)[C@H]2O)[C@@H](O)[C@H](O)[C@H]1O)[C@H]1CC[C@]2(C)[C@@H]1[C@H](O)C[C@@H]1[C@@]3(C)CC[C@H](O[C@@H]4O[C@H](CO)[C@@H](O)[C@H](O)[C@H]4O[C@@H]4O[C@H](CO)[C@@H](O)[C@H](O)[C@H]4O)C(C)(C)[C@@H]3CC[C@]12C` [ginsenoside Rb1, reference compound], the “death of hippocampus nerve cells during cerebral ischemia, in words” value in the test on hippocampus nerve cells was “inhibits death of hippocampus nerve cells”. The “glutamate-induced neurotoxicity in cultured cortical neuron, in words” value in the test on cultured cortical neuron is recorded as “inhibited”.

Consider `CC(C)=CCC[C@](C)(O)[C@H]1CC[C@]2(C)[C@@H]1[C@H](O)C[C@@H]1[C@@]3(C)CC[C@H](O[C@@H]4O[C@H](CO)[C@@H](O)[C@H](O)[C@H]4O[C@@H]4O[C@H](CO)[C@@H](O)[C@H](O)[C@H]4O)C(C)(C)[C@@H]3CC[C@]12C` [ginsenoside Rg3], for which the “NMDA receptor-mediated inward current, in words” value in the test with NMDA receptor [3] was “inhibits the inward current”. In addition, the “% inhibition” value in the test with NMDA receptor [1] (1 μM) turned out to be 31.2 ± 2.5%. Besides, the “NMDA receptor inhibition efficiency, screening of 10 ginsenosides, in words” value in the test on NMDA receptor [1] (10 μM, ginsenosides including isomers of C-20 position, FIGS. 2A and 2B) is recorded as “superior to those of other ginsenosides”. For the same compound, the IC50 with NMDA receptor [1] (Ca2+ influx on NMDA in cultured hippocampus nerve cell, read-out: IC50 of NMDA receptor inhibition (concentration dependence, FIG. 2C)) worked out at 3.8 µM. Besides, the “NMDA receptor-mediated Ca^2+ influx inhibition, comparison of isomer forms, in words” value in the test with NMDA receptor [1] is “equivalent efficacy regardless of an S-form or R-form isomer and their mixture”. Also, the “glutamate-induced neurotoxicity in cultured cortical neuron, in words” value with cultured cortical neuron is listed as “inhibited”. The “cell viability against neurotoxicity caused by NMDA, in words” value in test [2] is recorded as “effectively increase cell viability”.

As to `CC(C)=CCC[C@](C)(O)[C@H]1CC[C@]2(C)[C@@H]1[C@H](O)C[C@@H]1[C@@]3(C)CC[C@H](O[C@@H]4O[C@H](CO)[C@@H](O)[C@H](O)[C@H]4O)C(C)(C)[C@@H]3CC[C@]12C` [ginsenoside Rh2], in the test on NMDA receptor [1] (10 μM), the “% inhibition” value worked out at 18.6 ± 2.7 %.
